How the values were obtained:
[1] = system: A549 human lung cancer cells; experiment: CCK-8 proliferation inhibition, A549; assay type: cell-based; conditions: Homo sapiens, A549, CCK-8 method; for inhibition at 10 µM: compound concentration 10 μM; for inhibition at 100 µM: compound concentration 100 μM
Method: (§1) Detecting the inhibition rate of the compound concentrations of 100 μM and 10 μM to Hut78 T-cell Leukemia cell, Jurkat E6-1 human T-cell lymphoma, PANC-1 human pancreatic cancer cells, A549 human lung cancer cells, K562 human chronic myeloid leukemia cells, Hep3B2.1-7 human liver cancer cells, MDA-MB-435s human breast cancer cells, Colo320 human rectal cancer cells and PC-3 human prostate cancer using CCK-8 method.

[2] = system: PC-3 human prostate cancer; experiment: CCK-8 proliferation inhibition, PC-3; assay type: cell-based; conditions: Homo sapiens, CCK-8 method; for inhibition at 10 µM: compound concentration 10 μM; for inhibition at 100 µM: compound concentration 100 μM
Method: as §1

[3] = system: PANC-1 human pancreatic cancer cells; experiment: CCK-8 proliferation inhibition, PANC-1; assay type: cell-based; conditions: Homo sapiens; for inhibition at 10 µM: PANC-1, 10 μM; for inhibition at 100 µM: PANC-1, 100 μM
Method: as §1

[4] = system: MDA-MB-435s human breast cancer cells; experiment: CCK-8 proliferation inhibition, MDA-MB-435s; assay type: cell-based; conditions: Homo sapiens, MDA-MB-435S, CCK-8 method; for inhibition at 10 µM: compound concentration 10 μM; for inhibition at 100 µM: compound concentration 100 μM
Method: as §1

[5] = system: Hep3B2.1-7 human liver cancer cells; experiment: CCK-8 proliferation inhibition, Hep3B2.1-7; assay type: cell-based; conditions: Homo sapiens, Hep3B, CCK-8 method; for inhibition at 10 µM: compound concentration 10 μM; for inhibition at 100 µM: compound concentration 100 μM
Method: as §1

[6] = system: Jurkat E6-1 human T-cell lymphoma; experiment: CCK-8 proliferation inhibition, Jurkat E6-1; assay type: cell-based; conditions: Homo sapiens; for inhibition at 10 µM: Jurkat E6.1, 10 μM; for inhibition at 100 µM: Jurkat E6.1, 100 μM
Method: as §1

histone deacetylase = experiment: in vitro inhibition of histone deacetylase by HDAC inhibitor screening kit (Biovision K340-100); assay type: biochemical
Method: An assay for determining the in vitro inhibition activity of the compound on histone deacetylase is conducted according to the specification of HDAC inhibitor screeing kid (Biovision Company/Catalog #K340-100). […]

[7] = system: Colo320 human rectal cancer cells; experiment: CCK-8 proliferation inhibition, Colo320; assay type: cell-based; conditions: Homo sapiens, COLO 320, CCK-8 method; for inhibition at 10 µM: compound concentration 10 μM; for inhibition at 100 µM: compound concentration 100 μM
Method: as §1

[8] = system: Hut78 T-cell Leukemia cell; experiment: CCK-8 proliferation inhibition, Hut78; assay type: cell-based; conditions: Homo sapiens, read-out: Hut-78 (inhibition %); for inhibition at 10 µM: HuT78, 10 μM; for inhibition at 100 µM: HuT78, 100 μM
Method: as §1

[9] = system: K562 human chronic myeloid leukemia cells; experiment: CCK-8 proliferation inhibition, K562; assay type: cell-based; conditions: Homo sapiens; for inhibition at 10 µM: K562, 10 μM; for inhibition at 100 µM: K562, 100 μM
Method: as §1

Compound | Inhibition rate(%) (histone deacetylase; 3.91 μM) | Inhibition rate(%) (histone deacetylase; 62.5 μM) | inhibition at 10 µM [1] [%] | inhibition at 100 µM [1] [%] | inhibition at 10 µM [2] [%] | inhibition at 100 µM [2] [%] | inhibition at 10 µM [3] [%] | inhibition at 100 µM [3] [%] | inhibition at 10 µM [4] [%] | inhibition at 100 µM [4] [%] | inhibition at 10 µM [5] [%] | inhibition at 100 µM [5] [%] | inhibition at 10 µM [6] [%] | inhibition at 100 µM [6] [%] | inhibition at 10 µM [7] [%] | inhibition at 100 µM [7] [%] | inhibition at 10 µM [8] [%] | inhibition at 100 µM [8] [%] | inhibition at 10 µM [9] [%] | inhibition at 100 µM [9] [%] | other results
Nc1cnccc1NC(=O)c1ccc(CNC(=O)CCc2ccccc2)cc1 [V-49] | – | – | -9.5 | 39.9 | 28.3 | 53.8 | -6.1 | 7.3 | 10.3 | 51.9 | 11 | 63.4 | 28.4 | 93.7 | -2.5 | 33.8 | 2.3 | 54.4 | 22.1 | 71 | –
Cc1ccc(CCC(=O)NCc2ccc(C(=O)Nc3cccnc3N)cc2)cc1 [V-50, N-(2-amino-3-pyridyl)-4-[3-(4-methylphenyl)propionylaminomethyl]benzamide] | – | – | 8.6 | 14.2 | 5.5 | -3.8 | 10.2 | 12.9 | 14.7 | 36.9 | -0.5 | 23.5 | 8.9 | 75.9 | 6.8 | 27.4 | 0.4 | 46.9 | 23.8 | 75.7 | –

The next lines start with results.

Inhibition rate(%) (histone deacetylase; 3.91 μM) | Inhibition rate(%) (histone deacetylase; 62.5 μM) | Compound | inhibition at 10 µM [1] [%] | inhibition at 100 µM [1] [%] | inhibition at 10 µM [2] [%] | inhibition at 100 µM [2] [%] | inhibition at 10 µM [3] [%] | inhibition at 100 µM [3] [%] | inhibition at 10 µM [4] [%] | inhibition at 100 µM [4] [%] | inhibition at 10 µM [5] [%] | inhibition at 100 µM [5] [%] | inhibition at 10 µM [6] [%] | inhibition at 100 µM [6] [%] | inhibition at 10 µM [7] [%] | inhibition at 100 µM [7] [%] | inhibition at 10 µM [8] [%] | inhibition at 100 µM [8] [%] | inhibition at 10 µM [9] [%] | inhibition at 100 µM [9] [%] | other results
9.5 | 36.0 | Nc1cnccc1NC(=O)c1ccc(CNC(=O)OCc2ccccc2)cc1 [V-7] | -7.8 | 72.3 | 0.6 | 36.9 | 5.7 | 5.5 | 4.5 | 85.5 | -12.3 | 59.2 | 27.1 | 96 | -7.1 | 47.2 | 18.2 | 72.9 | 51 | 85.1 | Inhibition rate(%) (histone deacetylase; 2 mM): 78.2%
6.3 | 10.3 | Nc1ncccc1NC(=O)c1ccc(CNC(=O)OCc2ccccc2)cc1 [V-8, N-(2-amino-3-pyridyl)-4-(benzyloxyacylaminomethyl)benzamide] | -43.9 | -19.4 | 5.2 | 15.9 | 14.4 | 11.9 | -20.7 | -10.4 | -10.2 | -12.1 | 5.4 | 23.7 | 7.1 | 16.8 | 6.4 | 15.8 | -1.3 | 38.1 | Inhibition rate(%) (histone deacetylase; 2 mM): 35.3%
2.8 | 16.8 | Cc1ccc(COC(=O)NCc2ccc(C(=O)Nc3cccnc3N)cc2)cc1 [V-9, N-(2-amino-3-pyridyl)-4-[(4-methylbenzyloxyacyl)aminomethyl]benzamide] | -44.3 | -13.1 | 0 | 66.7 | 10.5 | 45.9 | -14.3 | 84.1 | 7.3 | 66.6 | 62.2 | 87.9 | 13 | 45.3 | 15 | 43.9 | 49.4 | 83.2 | Inhibition rate(%) (histone deacetylase; 2 mM): 36.7%

From patent US8889876B2, “Histone deacetylase inhibitors and uses thereof” (Jiangsu Hengyi Pharmaceutical Co., Ltd., priority 2008, dated 2014)
